In patent US6784178B2, “Pharmacotherapy for vascular dysfunction associated with deficient nitric oxide bioactivity” (Cornell Research Foundation, Inc., priority 2000, dated 2004):

Tests used:
[1] = biological target: T1, eNOS (Bos taurus, UniProt P29473); experiment: EPR (DEPMPO spin-trap) assessment of superoxide production by pterin-bound eNOS; type: biochemical; settings: 7 pmol eNOS; BH4 10 μM in buffer; subsequent addition of sepiapterin 50 μM or BH2 1 mM; FIGS. 2(a)-(c)
T1 construct: made in house
Method: (§1) The eNOS used in Reference Examples 1, 2, 3 and 4 was made as described in Martasek, P., et al., Biochem. Biophys. Res. Commn 219, 359-365 (1996).
Assay buffer utilized contained HEPES (50 mM, pH 7.4), calcium (0.2 mM), calmodulin (10 μg/ml), NADPH (0.1 mM), L-arginine (0.1 mM), tetrahydrobiopterin (10 μM), DEPMPO (structure shown in upper right of FIG. 2(a)) (50 mM), and diethylenetriamine pentaacetic acid (DTPA) (0.1 mM). Included was 7 pmol eNOS. Incubation was for 15 min at 22° C. Subsequent addition was either of sepiapterin (50 μM) or BH2 (1 mM). The DEPMPO functions as a probe (spin-trap) that selectively captures superoxide anion. Electron paramagnetic resonance (EPR) was carried out to determine superoxide production. EPR was carried out at microwave power of 2 mW, modulation amplitude 1G, time constant 0.128 seconds, scan rate 1.6 G/s, gain 1.25×10E5, number of scans 10.

[2] = biological target: T2, eNOS (Bos taurus, UniProt P29473); experiment: [3H]tetrahydrobiopterin competition binding to eNOS (96-well filtration plate assay); settings: [3H]BH4 10 pmoles, eNOS 3 pmoles, 15 minutes at 22° C., FIG. 1
T2 construct: made in house
T2 sequence (P29473 1-1205): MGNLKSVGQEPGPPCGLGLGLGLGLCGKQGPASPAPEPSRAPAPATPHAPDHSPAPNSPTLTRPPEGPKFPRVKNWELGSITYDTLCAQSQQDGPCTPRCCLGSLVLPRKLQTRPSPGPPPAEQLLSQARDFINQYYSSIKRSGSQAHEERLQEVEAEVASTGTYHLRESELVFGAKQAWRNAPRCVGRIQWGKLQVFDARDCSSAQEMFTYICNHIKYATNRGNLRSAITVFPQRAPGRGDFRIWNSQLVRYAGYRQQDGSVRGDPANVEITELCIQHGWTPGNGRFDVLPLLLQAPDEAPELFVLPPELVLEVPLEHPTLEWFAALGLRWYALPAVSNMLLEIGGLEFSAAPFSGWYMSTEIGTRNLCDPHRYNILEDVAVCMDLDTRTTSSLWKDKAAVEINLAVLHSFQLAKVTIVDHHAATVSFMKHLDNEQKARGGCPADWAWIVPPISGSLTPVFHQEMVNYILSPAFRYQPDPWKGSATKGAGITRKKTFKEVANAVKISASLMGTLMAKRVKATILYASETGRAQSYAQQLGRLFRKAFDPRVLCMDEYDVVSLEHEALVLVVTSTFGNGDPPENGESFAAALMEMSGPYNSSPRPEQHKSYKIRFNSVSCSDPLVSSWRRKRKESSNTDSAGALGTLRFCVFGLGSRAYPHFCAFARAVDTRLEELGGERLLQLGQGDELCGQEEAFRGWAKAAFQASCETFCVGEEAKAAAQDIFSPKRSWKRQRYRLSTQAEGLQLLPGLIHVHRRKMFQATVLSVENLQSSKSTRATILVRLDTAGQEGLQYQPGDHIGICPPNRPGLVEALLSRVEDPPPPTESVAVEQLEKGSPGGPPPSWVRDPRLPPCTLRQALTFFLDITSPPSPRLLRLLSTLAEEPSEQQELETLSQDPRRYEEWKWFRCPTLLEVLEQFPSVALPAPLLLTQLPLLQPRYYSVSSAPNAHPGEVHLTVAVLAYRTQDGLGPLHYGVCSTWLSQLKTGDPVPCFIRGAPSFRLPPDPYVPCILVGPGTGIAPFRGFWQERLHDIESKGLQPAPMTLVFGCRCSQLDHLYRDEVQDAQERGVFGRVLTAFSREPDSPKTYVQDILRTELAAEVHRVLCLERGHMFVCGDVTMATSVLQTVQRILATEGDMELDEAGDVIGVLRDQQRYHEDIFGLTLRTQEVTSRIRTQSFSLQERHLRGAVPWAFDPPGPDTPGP
Method: as §1
Increasing concentrations of unlabeled pterins were incubated for 15 minutes at 22° C. with [^3]tetrahydrobiopterin ([^3H]BH4), 10 pmoles, and eNOS, 3 pmoles, in binding buffer which is Tris.HCl, pH 7.5, (50 mM), and dithiothreitol (DTT) (1 mM), in a 100 microliter volume in each well in a 96-well filtration plate assay. The pterins used include 5,6,7,8-tetrahydrobiopterin (BH4), 7,8-dihydrobiopterin (BH2), 6-methyltetrahydrobiopterin (6 MePH4) and sepiapterin. Data which are shown in FIG. 1 are mean±SEM values of triplicate determinations. Similar results were obtained in four separate experiments. In FIG. 1, the squares denote BH4 for the naturally occurring (R)-stereoisomer of BH4 and represent BH4, the triangles represent BH2, the diamonds represent 6 MePH4, and the circles represent sepiapterin. In FIG. 1, the term “Inhibitor” in the horizontal legend means pterin analog and is generic for BH4, BH2, 6MePH4 and sepiapterin. Incubations were carried out at the concentrations indicated by the data points in FIG. 1. This experiment is to compare the ability of the named pterins to compete for [^3H]BH4 binding to eNOS.

[3] = biological target: T1, eNOS; experiment: Total nitrate/nitrite (Greiss assay) production by BH4- or BH2-bound eNOS from arginine or N-hydroxyarginine; type: biochemical; settings: for production of nitric oxide (total nitrate/nitrite) from substrate by BH2-bound eNOS / production of nitric oxide (total nitrate/nitrite) from substrate by BH4-bound eNOS: substrate 100 μM, eNOS 10 pmol, 1 hour at 37° C.; for production of nitric oxide (total nitrate/nitrite) from substrate by BH2-bound eNOS: BH2 10 μM; for production of nitric oxide (total nitrate/nitrite) from substrate by BH4-bound eNOS: BH4 10 μM
Method: as §1
All samples were 100 microliter total volume and contained assay buffer (Tris.HCl pH 7.6 (50 mM), DTT (1 mM), calcium (100 μM), and calmodulin (100 nM)). In the assay buffer, eNOS (10 pmol), either BH4 (10 μM) or BH2 (10 μM), and either L-arginine (100 μM) or N^ω-hydroxy-L-arginine (100 μM) were introduced. In some experiments, the nitric oxide synthase inhibitor N^ω-methyl-L-arginine (NMA, 1 mM) was additionally added or the required NO synthase cofactor calmodulin was omitted (No CaM). Incubations were for 1 hour at 37° C. Total nitrate/nitrite (as a measure of nitric oxide) was measured by the Greiss assay as described in “Methods of Nitric Oxide Research,” edited by Feelisch, M. and Stamler, J. S., John Wiley & Sons Ltd. (1996) at pages 491-497. Results are shown in FIGS. 3(a), 3(b), 3(c) and 3(d). […] Data represent means±SEM values of quadruplicate determinations.

[4] = Example V: chronic oral treatment of man with mild hypertension and coronary artery atherosclerosis; type: in vivo, human; settings: oral 5 mg/kg every 4 hours, free drug or with antioxidants/vitamins, with or without L-arginine
Method: He is treated with 5 mg/kg N^ω-hydroxy-L-arginine every 4 hours orally as either free drug or in admixture with antioxidant agents and vitamins (e.g., ascorbate, alpha-tocopherol, vitamin B6, vitamin B12, folate (folic acid), carotenoids, coenzyme Q10, phytoestrogens (including isoflavonoids), selenium, butylated hydroxytoluene (BHT), butylated hydroxyanisole (BHA) and n-3 polyunsaturated fatty acids (PUFA)) with or without L-arginine supplementation (20 mg/kg every 4 hours). The mixture is delivered as a nutriceutical. Blood pressure normalizes to less than 130/80 mm Hg and angiographic evidence indicates atherosclerosis progression is less than 10% additional over the next five years.

[5] = Example II: treadmill test in male with coronary artery disease; type: in vivo, human; settings: oral 10 mg/kg, within 90 minutes after dose; 3 mph, 5% incline; before treatment pain after 10 minutes
Method: A person with coronary artery disease develops chest pain and electrocardiographic evidence of angina after 10 minutes on a treadmill at 3 mph and 5% incline. Within 90 minutes after an oral dose of 10 mg/kg of N^ω-hydroxy-L-arginine, the subject is able to walk on the treadmill at 3 mph and 5% incline for 25 minutes without pain or evidence of […].

[6] = Example III: blood pressure and vascular resistance in hypertensive female; type: in vivo, human; settings: single 10 mg/kg intravenous dose, one hour after
Method: A person has moderate hypertension (150/100 mm Hg) and elevated vascular resistance. One hour after receiving a single 10 mg/kg intravenous dose of N^ω-hydroxy-L-arginine, mean arterial blood pressure is diminished by 14 mm Hg and systemic vascular resistance is reduced by 10%.

[7] = Example I: ointment applied to toes of male with Type I diabetes; type: in vivo, human; settings: 1% by weight ointment four times a day
Text: A person with Type I diabetes presents with symptoms of pain in toes and loss of pink color (gray tissue tone) in toes. An ointment containing 1% by weight N^ω-hydroxy-L-arginine is applied to the toes four times a day.

[8] = Example IV: chronic oral therapy after stroke; type: in vivo, human; settings: oral 5 mg/kg every 4 hours, alone or combined with L-arginine 20 mg/kg every 4 hours
Method: A person suffers from type 2 diabetes (adult onset diabetes or insulin resistant diabetes), coronary artery disease and hypertension (a not uncommon composite of conditions), experiences a stroke resulting in acute left-sided paralysis owing to right middle cerebral artery occlusion. Surviving the stroke, the patient is placed on chronic oral therapy with N^ω-hydroxy-L-arginine, 5 mg/kg every 4 hours, or a combination of this with L-arginine, 20 mg/kg every 4 hours.

[9] = biological target: T1, eNOS; experiment: Concentration dependence of nitric oxide synthesis from N-hydroxyarginine by BH2- or BH4-bound eNOS; type: biochemical; settings: eNOS 10 pmol preincubated with BH2 10 μM or BH4 10 μM; 1 hour at 37° C.; FIG. 4
Method: as §1
eNOS (10 pmol) was preincubated for 30 minutes at 37° C. in the presence of either BH2 (10 μM) or BH4 (10 μM) in assay buffer (Tris.HCl pH 7.6 (50 mM), DTT (1 mM), calcium (100 μM) and calmodulin (100 nM)). Then N^ω-hydroxy-L-arginine (denoted “Hydroxyarginine” in FIG. 4) was added (concentrations as disclosed in FIG. 4) and incubations were 100 microliter total volume and were allowed to proceed for 1 hour at 37° C. Nitric oxide production was assessed from accumulation of its stable oxidation products (nitrite and nitrate), quantified by a modified Greiss assay (reference recited in Reference Example 3). Data are mean±SEM values of quadruplicate determinations.

## C[C@H](O)[C@H](O)C1=Nc2c(nc(N)[nH]c2=O)NC1 [BH2, 7,8-dihydrobiopterin]
[1]
  superoxide production by eNOS bound to the pterin (EPR): activate superoxide production
[2]
  affinity of binding to eNOS (competition for [3H]BH4 binding): bind with equal affinity to eNOS

## CNC(=N)NCCC[C@H](N)C(=O)O [NMA, N^ω-methyl-L-arginine]
[3]; NMA 1 mM added, L-arginine 100 μM
  block of arginine conversion to nitric oxide by BH4-bound eNOS: > 90%
[3]; NMA 1 mM added, N-hydroxy-L-arginine 100 μM
  effect on N-hydroxyarginine conversion to nitric oxide by BH2-bound eNOS: < 30%

## N=C(NO)NCCC[C@H](N)C(=O)O [N^ω-hydroxy-L-arginine]
[4]
  atherosclerosis progression (angiographic) over the next five years: less than 10%
[4]; baseline 140/90 mm Hg
  blood pressure after treatment: less than 130/80
[5]
  time able to walk on treadmill without pain or evidence of angina: 25 min
[6]
  decrease of mean arterial blood pressure: 14 mm Hg
  reduction of systemic vascular resistance: 10%
[7]
  blood perfusion: Blood perfusion is increased
[7]; within 48 hours
  pain in toes: pain diminishes
  tissue colour of toes: tissue becomes pinker
[3]
  production of nitric oxide (total nitrate/nitrite) from substrate by BH2-bound eNOS: does cause production of nitric oxide
  production of nitric oxide (total nitrate/nitrite) from substrate by BH4-bound eNOS: causes production of nitric oxide
[8]
  recurrence of stroke within the next two years: no recurrence of stroke
[9]
  production of nitrogen oxides (nitrite and nitrate) by eNOS from the substrate: supports the production of nitrogen oxides by eNOS in the presence of either BH2 or BH4

## N=C(N)NCCC[C@H](N)C(=O)O [arginine, L-arginine]
[3]
  production of nitric oxide (total nitrate/nitrite) from substrate by BH2-bound eNOS: does not cause production of nitric oxide
  production of nitric oxide (total nitrate/nitrite) from substrate by BH4-bound eNOS: causes production of nitric oxide

## C[C@H](O)C(=O)C1=Nc2c(nc(N)[nH]c2=O)NC1 [sepiapterin]
[1]
  superoxide production by eNOS bound to the pterin (EPR): will activate superoxide production
